According to patent US20230085307A1, “PYRIDAZINONE COMPOUND AND HERBICIDE” (NISSAN CHEMICAL CORPORATION, priority 2019, published 2023):

Assays:
[1] = tested on: late watergrass; assay: Test Example 1: herbicidal activity, application before weed generation under submerged conditions (Table 16, symbol A); assay type: in vivo, late watergrass (Echinochloa oryzicola); details: 320 g/ha applied herbicide
Method in brief: (§1)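 Emulsion formulation, water-diluted to set dose, was put onto the flooded surface (4 cm depth, alluvial soil) the same day weeds were sown and 2.5-leaf rice transplanted. After 3 weeks at 25-30 °C under glass, each species was rated 0 (≤5% kill) to 5 (≥90% kill).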

[2] = tested on: Japanese bulrush; assay: Test Example 1: herbicidal activity, application before weed generation under submerged conditions (Table 16, symbol B); assay type: in vivo, Japanese bulrush (Schoenoplectus juncoides); details: 320 g/ha applied herbicide
Method in brief: as §1

[3] = tested on: Japanese bulrush; assay: Test Example 2: herbicidal activity, application during weed generation under submerged conditions (Table 17, symbol B); assay type: in vivo, Japanese bulrush (Schoenoplectus juncoides); details: AAH 320 g/ha; application during weed generation, submerged conditions
Method in brief: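 Alluvial soil in Wagner pots was flooded to 4 cm depth and sown with the three weeds together; pots were kept in a greenhouse at 25° C. to 30° C. At the one to two leaf stage, an emulsion formulation diluted in water to a set rate went onto the water surface; scored three weeks later.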

[4] = tested on: barnyard grass; assay: Test Example 3: herbicidal effect by foliage application, Wagner pot (Table 18, symbol H); assay type: in vivo, barnyard grass (Echinochloa crus-galli); details: 320 g/ha
Method in brief: (§2)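 Plants were sown in alluvial soil held under 0.1–0.5 cm standing water and grown 14 days in a greenhouse at 25–30 °C. An emulsifiable formulation, water-diluted to the set dose, was then sprayed onto the foliage, and effects were scored three weeks later using previously defined criteria.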

[5] = tested on: Chinese sprangletop; assay: Test Example 3: herbicidal effect by foliage application, Wagner pot (Table 18, symbol D); assay type: in vivo, chinese sprangletop (Leptochloa chinensis); details: 320 g/ha
Method in brief: as §2

[6] = tested on: southern crabgrass; assay: Test Example 4: herbicidal effect by soil treatment (Table 19, symbol F); assay type: in vivo, southern crabgrass (Digitaria ciliaris); details: amount of applied herbicide 320 g/ha
Method in brief: (§3)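 In this soil treatment, the formulated compound reached the seeds only through the soil: seeds were buried about 1.5 cm deep in sterilized diluvial soil, then the diluted emulsion was sprayed over the surface. After three weeks at 25° C. to 30° C. in a greenhouse, effects were graded on criteria from an earlier test.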

[7] = tested on: barnyard grass; assay: Test Example 4: herbicidal effect by soil treatment (Table 19, symbol H); assay type: in vivo, barnyard grass (Echinochloa crus-galli); details: amount of applied herbicide 320 g/ha
Method in brief: as §3

[8] = tested on: windgrass; assay: Test Example 4: herbicidal effect by soil treatment (Table 19, symbol L); assay type: in vivo, windgrass (Apera spica-venti); details: amount of applied herbicide 320 g/ha
Method in brief: as §3

[9] = tested on: lambsquarters; assay: Test Example 4: herbicidal effect by soil treatment (Table 19, symbol O); assay type: in vivo, lambsquarters (Chenopodium album); details: amount of applied herbicide 320 g/ha
Method in brief: as §3

[10] = tested on: persian speedwell; assay: Test Example 4: herbicidal effect by soil treatment (Table 19, symbol R); assay type: in vivo, Persian speedwell (Veronica persica); details: amount of applied herbicide 320 g/ha
Method in brief: as §3

[11] = tested on: barnyard grass; assay: Test Example 5: herbicidal effect by foliage application, plastic box (Table 20, symbol H); assay type: in vivo, barnyard grass (Echinochloa crus-galli); details: foliage application, 320 g/ha, three weeks after application
Method in brief: (§4)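 Plants were sown into sterilized diluvial soil under about 1.5 cm cover and kept in a greenhouse at 25° C. to 30° C. Fourteen days on, foliage received an even spray of the diluted emulsion. Herbicidal or crop effect was judged three weeks afterwards.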

[12] = tested on: blackgrass; assay: Test Example 5: herbicidal effect by foliage application, plastic box (Table 20, symbol J); assay type: in vivo, blackgrass (Alopecurus myosuroides); details: foliage application, 320 g/ha, three weeks after application
Method in brief: as §4

[13] = tested on: windgrass; assay: Test Example 5: herbicidal effect by foliage application, plastic box (Table 20, symbol L); assay type: in vivo, windgrass (Apera spica-venti); details: foliage application, 320 g/ha, three weeks after application
Method in brief: as §4

[14] = tested on: redroot pigweed; assay: Test Example 5: herbicidal effect by foliage application, plastic box (Table 20, symbol N); assay type: in vivo, redroot pigweed (Amaranthus retroflexus); details: foliage application, 320 g/ha, three weeks after application
Method in brief: as §4

[15] = tested on: lambsquarters; assay: Test Example 5: herbicidal effect by foliage application, plastic box (Table 20, symbol O); assay type: in vivo, lambsquarters (Chenopodium album); details: foliage application, 320 g/ha, three weeks after application
Method in brief: as §4

[16] = tested on: chickweed; assay: Test Example 5: herbicidal effect by foliage application, plastic box (Table 20, symbol P); assay type: in vivo, common chickweed (Stellaria media); details: foliage application, 320 g/ha, three weeks after application
Method in brief: as §4

SMILES | Herbicidal effect on A: late watergrass (grade 0-5) [1] | Herbicidal effect on B: Japanese bulrush (grade 0-5) [2] | herbicidal effect rating, B: Japanese bulrush [3] | herbicidal effect on H (barnyard grass), rating 0-5 [4] | herbicidal effect on D (Chinese sprangletop), rating 0-5 [5] | herbicidal effect rating, F: southern crabgrass [6] | herbicidal effect rating, H: barnyard grass [7] | herbicidal effect rating, L: windgrass [8] | herbicidal effect rating, O: lambsquarters [9] | herbicidal effect rating, R: persian speedwell [10] | herbicidal effect grade, H: barnyard grass [11] | herbicidal effect grade, J: blackgrass [12] | herbicidal effect grade, L: windgrass [13] | herbicidal effect grade, N: redroot pigweed [14] | herbicidal effect grade, O: lambsquarters [15] | herbicidal effect grade, P: chickweed [16]
CCCOc1ccccc1-c1sc2ccccc2c1-c1c(O)c(C)nn(C)c1=O [1-015] | 3 (Herbicidal rate of 40% or more and less than 70%) | 3 (Herbicidal rate of 40% or more and less than 70%) | 1 (Herbicidal rate of 5% or more and less than 20%) | 5 (Herbicidal rate of 90% or more (almost completely withered)) | 3 (Herbicidal rate of 40% or more and less than 70%) | 3 (Herbicidal rate of 40% or more and less than 70%) | 4 (Herbicidal rate of 70% or more and less than 90%) | 5 (Herbicidal rate of 90% or more (almost completely withered)) | 0 (Herbicidal rate of 5% or less (almost no effect)) | 4 (Herbicidal rate of 70% or more and less than 90%) | 3 (Herbicidal rate of 40% or more and less than 70%) | 5 (Herbicidal rate of 90% or more (almost completely withered)) | 5 (Herbicidal rate of 90% or more (almost completely withered)) | 3 (Herbicidal rate of 40% or more and less than 70%) | 0 (Herbicidal rate of 5% or less (almost no effect)) | 5 (Herbicidal rate of 90% or more (almost completely withered))
CCCCCOc1ccc(-c2sc3ccccc3c2-c2c(O)c(C)nn(C)c2=O)cc1 [1-026] | 1 (Herbicidal rate of 5% or more and less than 20%) | 2 (Herbicidal rate of 20% or more and less than 40%) | 3 (Herbicidal rate of 40% or more and less than 70%) | 4 (Herbicidal rate of 70% or more and less than 90%) | 1 (Herbicidal rate of 5% or more and less than 20%) | 0 (Herbicidal rate of 5% or less (almost no effect)) | 0 (Herbicidal rate of 5% or less (almost no effect)) | 0 (Herbicidal rate of 5% or less (almost no effect)) | 0 (Herbicidal rate of 5% or less (almost no effect)) | 3 (Herbicidal rate of 40% or more and less than 70%) | 3 (Herbicidal rate of 40% or more and less than 70%) | 4 (Herbicidal rate of 70% or more and less than 90%) | 4 (Herbicidal rate of 70% or more and less than 90%) | 5 (Herbicidal rate of 90% or more (almost completely withered)) | 0 (Herbicidal rate of 5% or less (almost no effect)) | 5 (Herbicidal rate of 90% or more (almost completely withered))
Cc1nn(C)c(=O)c(-c2c(-c3ccccc3OC(F)(F)F)sc3ccccc23)c1O [1-030] | 2 (Herbicidal rate of 20% or more and less than 40%) | 5 (Herbicidal rate of 90% or more (almost completely withered)) | 3 (Herbicidal rate of 40% or more and less than 70%) | 5 (Herbicidal rate of 90% or more (almost completely withered)) | 3 (Herbicidal rate of 40% or more and less than 70%) | 5 (Herbicidal rate of 90% or more (almost completely withered)) | 4 (Herbicidal rate of 70% or more and less than 90%) | 5 (Herbicidal rate of 90% or more (almost completely withered)) | 5 (Herbicidal rate of 90% or more (almost completely withered)) | 5 (Herbicidal rate of 90% or more (almost completely withered)) | 4 (Herbicidal rate of 70% or more and less than 90%) | 5 (Herbicidal rate of 90% or more (almost completely withered)) | 5 (Herbicidal rate of 90% or more (almost completely withered)) | 5 (Herbicidal rate of 90% or more (almost completely withered)) | 5 (Herbicidal rate of 90% or more (almost completely withered)) | 5 (Herbicidal rate of 90% or more (almost completely withered))
CCCC(=O)Oc1c(C)nn(C)c(=O)c1-c1c(-c2ccc(C(C)=NOC)cc2)sc2ccccc12 [1-044] | 5 (Herbicidal rate of 90% or more (almost completely withered)) | 5 (Herbicidal rate of 90% or more (almost completely withered)) | 3 (Herbicidal rate of 40% or more and less than 70%) | 4 (Herbicidal rate of 70% or more and less than 90%) | 4 (Herbicidal rate of 70% or more and less than 90%) | 2 (Herbicidal rate of 20% or more and less than 40%) | 0 (Herbicidal rate of 5% or less (almost no effect)) | 0 (Herbicidal rate of 5% or less (almost no effect)) | 4 (Herbicidal rate of 70% or more and less than 90%) | 5 (Herbicidal rate of 90% or more (almost completely withered)) | 3 (Herbicidal rate of 40% or more and less than 70%) | 3 (Herbicidal rate of 40% or more and less than 70%) | 3 (Herbicidal rate of 40% or more and less than 70%) | 5 (Herbicidal rate of 90% or more (almost completely withered)) | 4 (Herbicidal rate of 70% or more and less than 90%) | 5 (Herbicidal rate of 90% or more (almost completely withered))
